The values below come from patent publication US7179814B2, “Agents for controlling plant pests” (priority 1998, dated 2007).

This test has as its system Diabrotica balteata - larvae in the soil. Nature of the test: Critical concentration test/soil insects, Diabrotica balteata (Example Q). The test is classed as in vivo. Particulars: 10.00 ppm in soil; efficacy calculated from number of emerged maize plants. Here is the method: To produce a suitable preparation of active compound, 1 part by weight of active compound is mixed with the stated amount of solvent, the stated amount of emulsifier is added and the concentrate is diluted with water to the desired concentration. Here, the concentration of the active compound in the preparation is almost irrelevant; only the amount by weight of active compound per volume unit of soil, which is stated in ppm (mg/l), matters. The soil is filled into 0.5 l pots and these are allowed to stand at 20° C.
Immediately after preparation, 5 maize corns are placed into each pot. After 3 days, the test insects are placed into the treated soil. After a further 7 days, the efficacy is determined. The efficacy is calculated from the number of maize plants which have emerged.

Take `OC(Cc1ccccc1Cl)(Cn1nc[nH]c1=S)C1(Cl)CC1` (stereo not shown) [(49)]: the “Kill in % at active compound concentrations in ppm” value is recorded as 10.00 ppm = 0%.
